In publication PMC8880313, “Discovery of Novel Andrographolide Derivatives as Antiviral Inhibitors against Human Enterovirus A71” (Pharmaceuticals, 2022):

Legend:
Echo7 = experiment: Post-treatment assay, antiviral spectrum; format: cell-based, Echovirus 7 strain Wallace
Description: We were also interested in the antiviral potential of ZAF-47 against other Enteroviruses. As such, we performed post-treatment assay on RD cells infected with other Enteroviruses such as CV-A16, CV-A6, Echo7, CV-B5, CV-A24 and EV-D68.
(§1) To determine the inhibitory profiles of the hits, post treatment assay was performed. Seeded 24-well plates, with 1.5 × 10^5 RD cells per well, were incubated overnight at 37 °C with 5% CO2. The seeded cells were infected with EV-A71 (100 µL per well, MOI = 1) for 1 h at 37 °C with 5% CO2 and then rinsed with 1 mL of PBS twice. Different concentrations of the hits were used to treat the infected cells for 12 h at 37 °C with 5% CO2. At 12 hpi, the plates were frozen and thawed for 2 cycles (−80°C; 37 °C) before collection of supernatants to measure the viral titres via viral plaque assay.
Measurement of the viral titres from collected supernatants was derived from viral plaque assays. To do this, 24-well plates, seeded with 2.4 × 10^5 RD cells per well, were used in plaque assays for EV-A71, EV-D68, Echo7, CV-A6, CV-A16 and CV-A24 while 24-well plates, seeded with 1.2 × 10^5 Vero cells per well, were used in plaque assays for CV-B5. Seeded cells were incubated overnight at 37 °C with 5% CO2. […] Subsequent formation of viral plaques was counted manually to quantify the viral titre in PFU/mL […]

EV-A71 = experiment: Post-treatment assay with viral plaque assay; format: cell-based, human enterovirus A71 (EV-A71) strain 41; settings: for reduction in viral titre: post-treatment, 12 hpi
Description: Firstly, we performed cell viability assay to evaluate the cytotoxicity profile of the 19 hits. Cells seeded overnight were treated with the hit compounds at 10 µM. […] Anti-EV-A71 activity of AGP-253 had been illustrated and discussed previously. We were particularly interested in ZAF-46 and ZAF-47 as they belonged to the same series bearing novel 14-quinolinoxy and 17-hydro-8,9-olefin modifications (Figure 2b) that could potentially open up new targets for EV-A71 therapeutics. Additional cell viability assays were performed for ZAF-46 and ZAF-47 at different concentrations to identify the low cytotoxic concentrations for downstream post-treatment assays. For post-treatment assays, cells seeded overnight were infected with EV-A71 and subsequently treated with ZAF-46 and ZAF-47 at different concentrations. […] Treatment with ZAF-46 led to 1.4 log reduction at 10 µM and 2.4 log reduction at 20 µM (Figure 2c) while treatment with ZAF-47 led to 0.8 log reduction at 5 µM, 1.1 log reduction at 10 µM and 2.1 log reduction at 20 µM (Figure 2d). CC50 and IC50 for both compounds were determined and used to derive their SI (Table 2). ZAF-47 was selected for further downstream analysis due to its higher SI value which indicate higher pharmacological value for clinical use.
as §1
Measurement of the viral titres from collected supernatants was derived from viral plaque assays. To do this, 24-well plates, seeded with 2.4 × 10^5 RD cells per well, were used in plaque assays for EV-A71, EV-D68, Echo7, CV-A6, CV-A16 and CV-A24 while 24-well plates, seeded with 1.2 × 10^5 Vero cells per well, were used in plaque assays for CV-B5. Seeded cells were incubated overnight at 37 °C with 5% CO2. Viral supernatants were diluted from 10^−1 to 10^−7 in reduced serum DMEM before infecting the cells with a volume of 100 µL for 1 h at 37 °C with 5% CO2 (33 °C instead for EV-D68). Cells were rinsed twice with PBS before overlaying with 1 mL of reduced serum DMEM containing 0.5% agarose (Vivantis, Shah Alam, Malaysia). Cells infected with Echo7 supernatants were incubated for 2 days, cells infected with CV-A24 and CV-B5 supernatants were incubated for 3 days and cells infected with EV-A71, CV-A6, CV-A16 and EV-D68 supernatants were incubated for 4 days for the formation of plaques. Subsequently, the cells were fixed and stained overnight with 4% paraformaldehyde and 1% crystal violet (Sigma-Aldrich). Subsequent formation of viral plaques was counted manually to quantify the viral titre in PFU/mL

CC(=O)OC[C@]1(C)C(=O)CC[C@@]2(C)C(C/C=C3/C(=O)OC[C@@H]3Oc3cccc4cccnc34)=C(C)CC[C@@H]21 [ZAF-47, (14β)-(8′-Quinolinoxy)-3-ketone-9-dehydro-17-hydro-19-acetoxy–andrographolide]
viral titre (Echo7; 10 µM, Echo7-infected RD cells): reducing the viral titres of the above-listed enteroviruses significantly
IC50 (Echo7; Echo7, Enterovirus B, drug treatment duration 12 h, RD cells): 6.7 µM
reduction in viral titre (EV-A71; 5 µM): 0.8 log
reduction in viral titre (EV-A71; 10 µM): 1.1 log
reduction in viral titre (EV-A71; 20 µM): 2.1 log
IC50 (EV-A71; Enterovirus A, EVA71, EV-A71-infected RD cells, MOI = 1, 12 h treatment, viral plaque assay): 2.06 µM
Selectivity Index (SI) (EV-A71; SI = CC50/IC50): 14.35
